# Assay results published in PubChem BioAssay (NCI).
#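 GI50 is the concentration that inhibits growth by half. Definition used: TGI = concentration required for complete inhibition of growth.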
# Columns and labels:
# Experiment in all cases: NCI-60 cell line screen, 384-well format
# [1] = test system: SK-MEL-5 melanoma
# [2] = test system: SN12C renal
# [3] = test system: CAKI-1 renal
# [4] = test system: HL-60(TB) leukemia
# [5] = test system: MCF7 breast
# [6] = test system: SK-OV-3 ovarian
# [7] = test system: RXF 393 renal
# [8] = test system: OVCAR-8 ovarian
# [9] = test system: U251 glioblastoma
# [10] = test system: MDA-MB-435 melanoma
# [11] = test system: HCT-116 colon
# [12] = test system: SW-620 colon
# [13] = test system: OVCAR-4 ovarian
# [14] = test system: NCI-H522 lung
# [15] = test system: LOX IMVI melanoma
# [16] = test system: NCI-H226 lung
# [17] = test system: T-47D breast
# [18] = test system: ACHN renal
# [19] = test system: HCT-15 colon
# [20] = test system: NCI-H460 NSCLC
# [21] = test system: SNB-75 CNS
# [22] = test system: HCC-2998 colon
# [23] = test system: COLO 205 colon
# [24] = test system: OVCAR-5 ovarian
# [25] = test system: M14 melanoma
# [26] = test system: HT29 colon
# [27] = test system: RPMI-8226 leukemia
# [28] = test system: SR leukemia
# [29] = test system: BT-549 breast
structure (smiles),measurement,setting,value
C=CC(=O)N1CCN(c2nc(=O)n(-c3c(C)ccnc3C(C)C)c3nc(-c4c(O)cccc4F)c(F)cc23)[C@@H](C)C1,GI50,[1],21.6 µM
same,TGI,[1],46.5 µM
same,GI50,[2],50.3 µM
same,TGI,[2],> 100 µM
same,GI50,[3],30.9 µM
same,TGI,[3],> 89.7 µM
same,GI50,[4],19.8 µM
same,TGI,[4],35.5 µM
same,GI50,[5],36.9 µM
same,TGI,[5],> 100 µM
same,GI50,[6],46.5 µM
same,TGI,[6],> 100 µM
same,GI50,[7],4.34 µM
same,TGI,[7],14.3 µM
same,GI50,[8],19.7 µM
same,TGI,[8],36.6 µM
same,GI50,[9],22 µM
same,TGI,[9],52.6 µM
same,GI50,[10],62.4 µM
same,TGI,[10],> 100 µM
same,GI50,[11],17.5 µM
same,TGI,[11],35.6 µM
same,GI50,[12],36.8 µM
same,TGI,[12],> 100 µM
same,GI50,[13],43.8 µM
same,TGI,[13],> 100 µM
same,GI50,[14],21.1 µM
same,TGI,[14],43.2 µM
same,GI50,[15],16.6 µM
same,TGI,[15],31.8 µM
same,GI50,[16],20.5 µM
same,TGI,[16],52.2 µM
same,GI50,[17],> 81.3 µM
same,TGI,[17],> 100 µM
same,GI50,[18],30.2 µM
same,TGI,[18],> 68.2 µM
same,GI50,[19],27.2 µM
same,TGI,[19],> 65.3 µM
same,GI50,[20],28.2 µM
same,TGI,[20],65.4 µM
same,GI50,[21],54.2 µM
same,TGI,[21],97.5 µM
same,GI50,[22],15 µM
same,TGI,[22],29.6 µM
same,GI50,[23],24.7 µM
same,TGI,[23],58.8 µM
same,GI50,[24],> 100 µM
same,TGI,[24],> 100 µM
same,GI50,[25],32.1 µM
same,TGI,[25],> 79.9 µM
same,GI50,[26],33.2 µM
same,TGI,[26],> 100 µM
same,GI50,[27],16.6 µM
same,TGI,[27],32.5 µM
same,GI50,[28],6.68 µM
same,TGI,[28],18.9 µM
same,GI50,[29],15.7 µM
same,TGI,[29],35.2 µM
